The values below come from patent publication US9475784B2, “4,6-diarylaminothiazines as BACE1 inhibitors and their use for the reduction of beta-amyloid production” (BRISTOL-MYERS SQUIBB COMPANY, priority 2012, dated 2016).

Counter-ions that a name gives are not always drawn.

The subject of this test is Aβ42 production in H4 cells stably transfected with APP751 containing the Swedish mutation (H4 APP751 SWE clone 8.20). In words: Cellular assay for inhibition of Aβ1-42 production (H4 APP751 SWE clone 8.20). It is filed as cell-based. The following applies: H4 APP751 SWE clone 8.20 cells, 19 h incubation. Here is the method: Cellular Assays for Inhibition of Aβ1-40 and Aβ1-42 Production
H4 cells stably transfected with APP751 containing the Swedish mutation (H4 APP751 SWE clone 8.20, developed at BMS) were maintained in log phase through twice weekly passage at a 1:20 split. […] Following incubation for 19 h in 5% CO2 at 37° C., plates were briefly centrifuged (1000 rpm, 5 min). A 10 μl aliquot from each well was transferred to a second assay plate (Costar 3709) for Aβ40 measurements. Antibody cocktails were freshly prepared by dilution into 40 mM Tris-HCl (pH 7.4) with 0.2% BSA and added to assay plates. For Aβ42 measurements, antibodies specific for the Aβ42 neoepitope (565, developed at BMS; conjugated to the Wallac reagent (Perkin Elmer)) and the N-terminal sequence of Aβ peptide (26D6, developed at SIBIA; conjugated to APC (Perkin Elmer)) were mixed and 20 μl of the mixture was added to each well of the incubated cell plate yielding a final concentration of 0.8 ng/well 565 and 75 ng/well 26D6. For the Aβ40 measurements, antibodies specific for the Aβ40 neoepitope (TSD, developed at BMS; conjugated to the Wallac reagent (Perkin Elmer)) and 26D6 as described above were mixed and 20 μl of the mixture was added to the 10 μl aliquots which had been removed previously from the cell plate yielding a final concentration of 1.6 ng/well TSD and 17.5 ng/well 26D6. Assay plates containing antibodies were sealed with aluminum foil and incubated overnight at 4° C. Signal was determined using a Viewlux counter (Perkin Elmer) and IC50 values determined using curve fitting in CurveMaster (Excel Fit based).

[1] abbreviates: Table 5B, 6-heterocyclic thiazine examples.
[2] abbreviates: Table 5A, 6-alkyl and 6-substituted phenyl thiazine examples.

For the molecule `COc1ccc([C@@H]2C[C@@H](c3cccc(-c4cncnc4)c3)N=C(N)S2)cn1` [Example 10, (4S,6S)-6-(6-methoxypyridin-3-yl)-4-(3-(pyrimidin-5-yl)phenyl)-5,6-dihydro-4H-1,3-thiazin-2-amine•TFA], under setting [1], the midpoint of inhibition, the IC50, lay at 2100 nM.

Consider `COc1ncccc1-c1cc([C@]2(C)C[C@@H](c3c(C)noc3C)SC(N)=N2)c(F)cc1F` [Example 56, (4S,6S)-4-(2,4-difluoro-5-(2-methoxypyridin-3-yl)phenyl)-6-(3,5-dimethylisoxazol-4-yl)-4-methyl-5,6-dihydro-4H-1,3-thiazin-2-amine], for which the half-inhibitory concentration (IC50) – broadly, the midpoint of a concentration-inhibition curve – under setting [1] was determined as 670 nM.

For `Cc1noc(C)c1[C@@H]1C[C@@H](c2cc(-c3cncnc3)c(F)cc2F)N=C(N)S1` (racemic) [Example 29, (±)-4-(2,4-difluoro-5-(pyrimidin-5-yl)phenyl)-6-(3,5-dimethylisoxazol-4-yl)-5,6-dihydro-4H-1,3-thiazin-2-amine], the IC50 under setting [1] was determined as 200 nM.

As for `COc1ccc(-c2cc([C@]3(C)C[C@@H](c4c(C)noc4C)SC(N)=N3)c(F)cc2F)cn1` [Example 54, (4S,6S)-4-(2,4-difluoro-5-(6-methoxypyridin-3-yl)phenyl)-6-(3,5-dimethylisoxazol-4-yl)-4-methyl-5,6-dihydro-4H-1,3-thiazin-2-amine], inhibition under setting [1] was half-maximal at 320 nM (IC50).

Molecule `NC1=N[C@H](c2cccc(-c3cncnc3)c2)C[C@@H](c2ccc(F)cc2)S1` (racemic) [Example 16, (±)-6-(4-fluorophenyl)-4-(3-(pyrimidin-5-yl)phenyl)-5,6-dihydro-4H-1,3-thiazin-2-amine•TFA] came in with a 50% inhibitory concentration (IC50) under setting [2] of 2600 nM.

`C=CCC[C@@H]1C[C@@H](c2cccc(-c3cncnc3)c2)N=C(N)S1` (racemic) [Example 6, (±)-6-(but-3-enyl)-4-(3-(pyrimidin-5-yl)phenyl)-5,6-dihydro-4H-1,3-thiazin-2-amine]: 14000 nM corresponded to half-maximal inhibition under setting [2] (IC50).

Consider `NC1=N[C@H](c2cccc(-c3cncnc3)c2)C[C@@H](C2CCCCC2)S1` (racemic) [Example 5, (±)-6-cyclohexyl-4-(3-(pyrimidin-5-yl)phenyl)-5,6-dihydro-4H-1,3-thiazin-2-amine], for which inhibition under setting [2] was half-maximal at 3800 nM (IC50).

Under setting [1], `Cc1noc(C)c1[C@@H]1C[C@@H](c2cc(-c3cccc(C#N)c3)cs2)N=C(N)S1` (racemic) [Example 35, 3-(5-((±)-2-amino-6-(3,5-dimethylisoxazol-4-yl)-5,6-dihydro-4H-1,3-thiazin-4-yl)thiophen-3-yl)benzonitrile] gave a half-inhibitory concentration (IC50) of 300 nM.

Molecule `Cc1nocc1[C@@H]1C[C@@](C)(c2ccc(F)cc2F)N=C(N)S1` [Example 61, (4S,6S)-4-(2,4-difluorophenyl)-4-methyl-6-(3-methylisoxazol-4-yl)-5,6-dihydro-4H-1,3-thiazin-2-amine] had a concentration for half-maximal inhibition (IC50) under setting [1] of 300 nM.

Molecule `COc1ccc([C@@H]2C[C@@H](c3cc(-c4cncnc4)cs3)N=C(N)S2)cc1OC` (racemic) [Example 30, (±)-6-(3,4-dimethoxyphenyl)-4-(4-(pyrimidin-5-yl)thiophen-2-yl)-5,6-dihydro-4H-1,3-thiazin-2-amine] gave an IC50 under setting [2] of 8000 nM.

In turn, `NC1=N[C@H](c2cccc(-c3cncnc3)c2)C[C@@H](Cc2ccccc2)S1` (racemic) [Example 4, (±)-6-benzyl-4-(3-(pyrimidin-5-yl)phenyl)-5,6-dihydro-4H-1,3-thiazin-2-amine] gave an IC50 under setting [2] of 7400 nM.

On to `Cc1noc(C)c1[C@@H]1C[C@@](C)(c2cc(-c3cnc(S(C)(=O)=O)nc3)c(F)cc2F)N=C(N)S1` [Example 52, (4S,6S)-4-(2,4-difluoro-5-(2-(methylsulfonyl)pyrimidin-5-yl)phenyl)-6-(3,5-dimethylisoxazol-4-yl)-4-methyl-5,6-dihydro-4H-1,3-thiazin-2-amine], for which, under setting [1], the IC50 was determined as 820 nM.

Take `COc1ccc([C@@H]2C[C@@H](c3cc(-c4cncnc4)c(F)cc3F)N=C(N)S2)cc1OC` (racemic) [Example 1, (±)-4-(2,4-difluoro-5-(pyrimidin-5-yl)phenyl)-6-(3,4-dimethoxyphenyl)-5,6-dihydro-4H-1,3-thiazin-2-amine]: it took 1100 nM to reach half-maximal inhibition under setting [2] (IC50).

Turning to `Cc1ncc(-c2cc([C@]3(C)C[C@@H](c4c(C)noc4C)SC(N)=N3)c(F)cc2F)cn1` [Example 40, (4S,6S)-4-(2,4-difluoro-5-(2-methylpyrimidin-5-yl)phenyl)-6-(3,5-dimethylisoxazol-4-yl)-4-methyl-5,6-dihydro-4H-1,3-thiazin-2-amine], under setting [1], the midpoint of inhibition, the IC50, lay at 186 nM.

In turn, `COc1ccc([C@@H]2C[C@@H](c3ccc(F)c(-c4cncnc4)c3)N=C(N)S2)cc1OC` (single isomer, unassigned) [Example 7A] came in with an IC50 under setting [2] of 350 nM.

In the case of `NC1=N[C@H](c2cccc(-c3cncnc3)c2)C[C@@H](c2cnccn2)S1` (racemic) [Example 23, (±)-6-(pyrazin-2-yl)-4-(3-(pyrimidin-5-yl)phenyl)-5,6-dihydro-4H-1,3-thiazin-2-amine•TFA], the IC50 under setting [1] stood at 2400 nM.

Under setting [1], `Cc1noc(CC(C)(C)O)c1[C@@H]1C[C@@](C)(c2ccc(F)cc2F)N=C(N)S1` [Example 48, 1-(4-((4S,6S)-2-amino-4-(2,4-difluorophenyl)-4-methyl-5,6-dihydro-4H-1,3-thiazin-6-yl)-3-methylisoxazol-5-yl)-2-methylpropan-2-ol] returned a half-inhibitory concentration (IC50) of 110 nM.

`Cc1noc(C)c1[C@@H]1C[C@@](C)(c2cc(-c3cncc(O)c3)c(F)cc2F)N=C(N)S1` [Example 53, 5-(5-((4S,6S)-2-amino-6-(3,5-dimethylisoxazol-4-yl)-4-methyl-5,6-dihydro-4H-1,3-thiazin-4-yl)-2,4-difluorophenyl)pyridin-3-ol] showed an IC50 under setting [1] of 300 nM.

Molecule `NC1=N[C@H](c2cccc(-c3cncnc3)c2)C[C@@H](c2c[nH]cn2)S1` (racemic) [Example 21, (±)-6-(1H-imidazol-4-yl)-4-(3-(pyrimidin-5-yl)phenyl)-5,6-dihydro-4H-1,3-thiazin-2-amine•TFA] had a 50% inhibitory concentration (IC50) under setting [1] above 30000 nM.

`Cc1noc(C)c1[C@@H]1C[C@@](C)(c2cc(F)cc(F)c2)N=C(N)S1` [Example 49, (4S,6S)-4-(3,5-difluorophenyl)-6-(3,5-dimethylisoxazol-4-yl)-4-methyl-5,6-dihydro-4H-1,3-thiazin-2-amine]: half-maximal inhibition under setting [1] (IC50) was put at 270 nM.
